Reference: ChEMBL document CHEMBL1137193, “Discovery of new chemical leads for prostaglandin D2 receptor antagonists” (Bioorg Med Chem Lett, 2004)

What was measured:
[1] = molecular target: T1, Prostaglandin D2 receptor (Mus musculus, UniProt P70263); experiment: Binding affinity for mouse Prostanoid DP receptor
T1 sequence (P70263 whole entry): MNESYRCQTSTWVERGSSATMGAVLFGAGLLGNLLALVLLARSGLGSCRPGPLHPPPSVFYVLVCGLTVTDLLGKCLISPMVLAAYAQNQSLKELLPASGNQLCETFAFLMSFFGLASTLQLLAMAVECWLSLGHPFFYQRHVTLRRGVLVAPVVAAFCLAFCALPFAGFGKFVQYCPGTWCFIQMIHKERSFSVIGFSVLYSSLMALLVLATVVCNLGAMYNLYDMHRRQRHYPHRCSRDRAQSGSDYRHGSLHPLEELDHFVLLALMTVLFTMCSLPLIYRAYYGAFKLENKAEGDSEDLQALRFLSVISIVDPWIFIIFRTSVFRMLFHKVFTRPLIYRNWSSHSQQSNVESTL

[2] = molecular target: T2, Prostaglandin E2 receptor EP3 subtype (Mus musculus, UniProt P30557); experiment: Binding affinity for mouse Prostanoid EP3 receptor
T2 sequence (P30557 whole entry): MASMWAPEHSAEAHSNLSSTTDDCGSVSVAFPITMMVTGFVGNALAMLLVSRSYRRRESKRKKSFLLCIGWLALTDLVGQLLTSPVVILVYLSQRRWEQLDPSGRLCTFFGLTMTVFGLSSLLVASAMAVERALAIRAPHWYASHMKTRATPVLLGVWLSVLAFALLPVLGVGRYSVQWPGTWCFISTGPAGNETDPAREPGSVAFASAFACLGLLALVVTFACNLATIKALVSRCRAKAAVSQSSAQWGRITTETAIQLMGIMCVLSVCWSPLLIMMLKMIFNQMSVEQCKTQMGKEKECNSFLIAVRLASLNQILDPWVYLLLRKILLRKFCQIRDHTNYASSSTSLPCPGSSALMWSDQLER

[3] = molecular target: Prostaglandin E2 receptor EP4 subtype (Mus musculus, UniProt P32240); experiment: Binding affinity for mouse Prostanoid EP4 receptor
Chain of Prostaglandin E2 receptor EP4 subtype (P32240 whole entry): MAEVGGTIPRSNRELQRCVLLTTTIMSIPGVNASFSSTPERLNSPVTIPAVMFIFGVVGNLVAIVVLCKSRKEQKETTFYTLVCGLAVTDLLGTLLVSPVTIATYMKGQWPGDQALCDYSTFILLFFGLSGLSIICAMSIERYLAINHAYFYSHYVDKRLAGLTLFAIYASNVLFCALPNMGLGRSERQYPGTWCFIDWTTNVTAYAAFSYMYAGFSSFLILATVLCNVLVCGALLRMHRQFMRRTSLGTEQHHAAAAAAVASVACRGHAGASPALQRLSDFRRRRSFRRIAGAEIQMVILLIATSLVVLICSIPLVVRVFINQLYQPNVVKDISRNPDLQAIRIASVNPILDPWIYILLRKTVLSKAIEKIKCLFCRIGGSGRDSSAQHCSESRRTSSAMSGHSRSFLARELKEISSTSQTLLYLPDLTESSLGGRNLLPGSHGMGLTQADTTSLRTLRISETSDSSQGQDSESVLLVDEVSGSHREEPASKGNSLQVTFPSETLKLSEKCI

[4] = molecular target: Prostaglandin E2 receptor EP2 subtype (Mus musculus, UniProt Q62053); experiment: Binding affinity for mouse Prostanoid EP2 receptor
Chain of Prostaglandin E2 receptor EP2 subtype (Q62053 whole entry): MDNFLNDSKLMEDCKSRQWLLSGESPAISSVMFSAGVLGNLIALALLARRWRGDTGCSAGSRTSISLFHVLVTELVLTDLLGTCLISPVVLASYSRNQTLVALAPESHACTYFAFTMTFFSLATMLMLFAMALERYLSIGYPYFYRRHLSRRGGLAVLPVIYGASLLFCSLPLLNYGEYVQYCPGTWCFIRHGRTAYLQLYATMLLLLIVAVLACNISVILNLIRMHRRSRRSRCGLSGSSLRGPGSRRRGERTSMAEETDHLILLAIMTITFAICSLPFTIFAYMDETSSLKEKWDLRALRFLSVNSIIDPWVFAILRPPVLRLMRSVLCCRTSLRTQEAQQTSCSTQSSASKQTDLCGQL

[5] = molecular target: T1, Prostaglandin D2 receptor; experiment: Inhibition of mouse Prostanoid DP receptor
[6] = molecular target: T3, Prostaglandin E2 receptor EP1 subtype (Mus musculus, UniProt P35375); experiment: Binding affinity for mouse Prostanoid EP1 receptor
T3 sequence (P35375 whole entry): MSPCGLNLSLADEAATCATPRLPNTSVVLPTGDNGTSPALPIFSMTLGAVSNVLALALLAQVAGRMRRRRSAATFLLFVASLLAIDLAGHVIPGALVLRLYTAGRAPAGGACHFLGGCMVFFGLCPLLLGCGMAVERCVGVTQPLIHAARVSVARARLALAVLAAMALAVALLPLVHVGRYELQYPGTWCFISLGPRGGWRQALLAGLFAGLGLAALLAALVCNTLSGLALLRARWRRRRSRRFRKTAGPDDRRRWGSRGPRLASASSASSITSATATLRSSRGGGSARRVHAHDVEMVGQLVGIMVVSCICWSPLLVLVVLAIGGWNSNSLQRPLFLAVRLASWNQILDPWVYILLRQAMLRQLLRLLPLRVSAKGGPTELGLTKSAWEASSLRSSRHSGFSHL

Row | SMILES | Ki [1] | Ki [2] | Ki [3] | Ki [4] | IC50 [5] | Ki [6]
1 | CCCCOc1ccc(C(=O)n2c(C)c(CC(=O)O)c3ccccc32)cc1 | 0.11 µM | > 10 µM | > 10 µM | 2.1 µM | 3.9 µM | 5.2 µM
2 | CCCCOc1ccc(C(=O)n2c(C)c(CC(=O)O)c3cc(C)ccc32)cc1 | 0.15 µM | > 10 µM | 2.2 µM | 1.7 µM | 2.9 µM | 5 µM
3 | CCCCOc1ccc(C(=O)n2c(C)c(CC(=O)O)c3cc(O)ccc32)cc1 | 1.9 µM | > 10 µM | > 10 µM | 3.3 µM | > 10 µM | > 10 µM
4 | CCCCOc1ccc(C(=O)n2cc(CC(=O)O)c3cc(OC)ccc32)cc1 | 2.2 µM | > 10 µM | > 10 µM | 8.9 µM |  | > 10 µM
5 | CCCCOc1ccc(C(=O)n2c(C)c(CCCCC(=O)O)c3cc(OC)ccc32)cc1 | 0.4 µM | > 10 µM | 4.2 µM | 5.2 µM | 4.5 µM | > 10 µM
6 | CCCCOc1ccc(C(=O)n2c(C)c(CCCC(=O)O)c3cc(OC)ccc32)cc1 | 0.19 µM | 2.4 µM | 1.5 µM | 2.7 µM | 0.91 µM | > 10 µM
7 | CCCCOc1ccc(C(=O)n2c(CC)c(CC(=O)O)c3cc(OC)ccc32)cc1 | 1.5 µM | > 10 µM | > 10 µM | 2.9 µM |  | 3.8 µM
8 | CCCCOc1ccc(C(=O)n2c(C)c(C(=O)O)c3cc(OC)ccc32)cc1 | 0.94 µM | > 10 µM | > 10 µM | > 10 µM | 4 µM | > 10 µM
9 | CCCCOc1ccccc1C(=O)n1c(C)c(CC(=O)O)c2cc(OC)ccc21 | > 10 µM | > 10 µM | > 10 µM | > 10 µM |  | 6.5 µM
10 | CCCCOc1ccc(C(=O)n2c(C)c(CC(=O)O)c3cc(OC)ccc32)cc1 | 0.27 µM | > 10 µM | > 10 µM | 4.7 µM | 1.6 µM | > 10 µM
11 | CCCCOc1cccc(C(=O)n2c(C)c(CC(=O)O)c3cc(OC)ccc32)c1 | 0.41 µM | > 10 µM | > 10 µM | 1.7 µM | 2.5 µM | > 10 µM
12 | CCCCOc1ccc(C(=O)n2c(C)c(CCC(=O)O)c3cc(OC)ccc32)cc1 | 0.28 µM | > 10 µM | 3 µM | 5.7 µM | 1.5 µM | > 10 µM
13 | COc1ccc2c(c1)c(CC(=O)O)c(C)n2C(=O)c1ccc(Cl)cc1 [INDOMETHACIN] | > 10 µM | > 10 µM | > 10 µM | > 10 µM | > 10 µM | > 10 µM
